Measured values published in patent publication EP0055996A1, “Antithrombotic treatment” (T AND R CHEMICALS, INC., priority 1980, dated 1982).

How the values were obtained:
[1] = test system: coagulation factors; assay: In vitro prothrombin time (PT) coagulation assay; design: species or system human; settings: for PT(sec) REPLICATIONS I: replication I
Protocol: (§1) In vitro assays of the product of each of Examples A to C and certain of the Examples included in European Application No 81302950.1 were conducted for coagulation factors as described in "Human Blood Coagulation., Haemostasis and Thrombosis", edited by Rosemary Biggs, published by Blackwell Scientific Publications, Oxford, England (2nd Edition), pages 670-705, 1976.

[2] = test system: coagulation factors; assay: In vitro partial thromboplastin time (PTT) coagulation assay; design: species or system human; settings: for PTT(sec) REPLICATIONS I: replication I
Protocol: as §1

[3] = Used at 0.01 Molar Concentration Based on NaHSO3
[4] = Used at 0.01 Molar Concentration Based on NaHSO3, replication II
[5] = Used at 0.01 Molar Concentration Based on NaHSO3, replication III

SMILES	ability to affect PT values ([1]; no conditions given)	ability to affect PTT values ([2]; no conditions given)	PT(sec) REPLICATIONS I [1, 3] [s]	PT(sec) REPLICATIONS II [1, 4] [s]	PT(sec) REPLICATIONS III [1, 5] [s]	PTT(sec) REPLICATIONS I [2, 3] [s]	PTT(sec) REPLICATIONS II [2, 4] [s]	PTT(sec) REPLICATIONS III [2, 5] [s]
O=S=O [aqueous solutions of sulphur dioxide, sulphur dioxide]	display a capacity to lengthen PT and PTT values at least to the extent indicated above	display a capacity to lengthen PT and PTT values at least to the extent indicated above						
O=S([O-])O.[Na+] [NaHSO3 in water, sodium bisulphite]			20.2	20.3	20.0	64.4	63.2	63.9
O=S(=O)(O)CO [Sodium formaldehyde bisulphite]			20.5			63.5		
